ChEMBL document CHEMBL1152564, “Antagonists of the human A(2A) receptor. Part 6: Further optimization of pyrimidine-4-carboxamides” (Bioorg Med Chem, 2009)

Experiments:
Assay type in all cases: ADME, organism-based
[1] = Terminal half life in rat; conditions: in vivo, read-out: beta t1/2 (converted)
[2] = Volume of distribution in rat; conditions: in vivo
[3] = Oral bioavailability in rat; conditions: in vivo
[4] = Clearance in rat; conditions: in vivo
[5] = Tmax in rat plasma

- half-life [1]: 3 h
- Vd [2]: 0.7 L/kg
- bioavailability [3]: 3%
- clearance [4]: 32.5 mL/min/kg
- Tmax [5]: 0.25 h
Compound: Cc1cccc(CNC(=O)c2cc(-c3ccc(C)o3)nc(N)n2)n1
